Reference: US20130059894A1, “PESTICIDAL COMPOSITION AND ITS USE” (SUMITOMO CHEMICAL COMPANY, LIMITED, priority 2010, published 2013)

Tested on: Rhizoctonia solani
Assay: Soybean seed treatment test against disease caused by Rhizoctonia solani in contaminated soil
Format: in vivo, Rhizoctonia solani on soybean (variety: Natto shoryu)
Conditions: seed treatment of soybean; carboxamide compound 0.2 g/100 kg of seeds alone (no sulfoxaflor); cultivated 20 days in soil contaminated by Rhizoctonia solani
Method: A cyclohexanone solution (100 microL) containing prescribed amount (weight) of a test compound was applied on seeds of soybean (variety: Natto shoryu) (10 g) by using a rotary apparatus for seed treatment (Seed dresser, manufactured by Hans-Ulrich Hege GmbH). One day after the application, plastic pot was filled with soil contaminated by Rhizoctonia solani, and the seeds treated with the test compounds were seeded in the soil and cultivated in a glass-greenhouse for 20 days (hereinafter referred to as “treated plot”). Thereafter, the presence of disease caused by Rhizoctonia solani in the young plants which germinated from each seed was observed and disease severity was calculated according to the following calculation formula (1). On the other hand, seeds of soybean which are not treated as above were cultivated in the same way as above (hereinafter referred to as “non-treated plot”) and the disease severity in the “non-treated plot” was calculated in the same way as the above “treated plot”. On the basis of the above severity in “treated plot” and “non-treated plot”, efficacy in “treated plot” was evaluated according to the following calculation formula (2). […]

Cc1nn(C)c(C)c1C(=O)Nc1cccc2c1C(C)CC2(C)C (stereo not shown) [carboxamide compound (5)]
efficacy (%): 15.8%
